The source of these data is publication PMC7251097, “Aspartate/asparagine-β-hydroxylase: a high-throughput mass spectrometric assay for discovery of small molecule inhibitors” (Scientific Reports, 2020).

A word on the % inhibition: it is the drop in the measured response relative to a control, in per cent. The inhibition is the change of the read-out against control, counted positive when it falls. A word on the IC50: it is the midpoint of a concentration-inhibition curve. The Inhibition is the relative decrease from the control value, in per cent.

For the test, the target named is T1, His6-AspH315–758 (human aspartate/asparagine-β-hydroxylase, AspH) (Homo sapiens, UniProt Q12797).
T1 construct: N-Terminally His6-tagged human AspH315–758 (His6-AspH315–758) was produced in E. coli BL21 (DE3) cells; made in house; host or cells: E. coli BL21 (DE3), pET-28a(+) vector
T1 sequence (Q12797 315-758): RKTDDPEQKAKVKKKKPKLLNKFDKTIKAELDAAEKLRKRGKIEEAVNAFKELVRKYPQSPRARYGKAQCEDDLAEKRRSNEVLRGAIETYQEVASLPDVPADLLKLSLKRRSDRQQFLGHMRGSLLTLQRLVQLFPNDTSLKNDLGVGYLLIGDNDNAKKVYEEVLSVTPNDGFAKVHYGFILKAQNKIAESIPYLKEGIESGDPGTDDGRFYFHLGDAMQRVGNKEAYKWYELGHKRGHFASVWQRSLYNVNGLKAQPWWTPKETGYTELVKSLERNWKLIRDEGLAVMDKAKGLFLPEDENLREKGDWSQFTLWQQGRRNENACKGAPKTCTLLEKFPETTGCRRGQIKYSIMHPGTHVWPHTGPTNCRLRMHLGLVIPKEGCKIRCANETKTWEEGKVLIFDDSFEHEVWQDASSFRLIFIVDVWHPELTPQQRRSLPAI
The test can be described thus: SPE-MS AspH inhibition assay (LOPAC screen at fixed 20 μM and IC50 dose-response), hydroxylation of cyclic peptide hFX-CP101–119. It is filed as biochemical. Conditions: for IC50: read-out: IC50.

Setting [1] is: LOPAC Plate 4, compound at 20 uM.
[2] abbreviates: LOPAC Plate 4, compound at 20 uM, substrate conversion.
[3] abbreviates: LOPAC compound at 20uM, conversion of substrate peptide.
The mark [4] stands for this setting: LOPAC compound at fixed 20 uM, plate 1, normalised to DMSO and 2,4-PDCA controls.
The mark [5] stands for this setting: LOPAC compound at fixed 20 uM, substrate conversion, plate 1.
The mark [6] stands for this setting: plate 5 (Pfitzer), test compounds at fixed 20 μM.
[7] abbreviates: plate 5 (Pfitzer), test compounds at fixed 20 μM, mean conversion DMSO 32.88.
[8] abbreviates: LOPAC Plate 4, compound at 20 uM, read-out: % inhibition.
The mark [9] stands for this setting: 50 nM His6-AspH315–758, 1.0 μM hFX-CP101–119, 3 μM 2OG, 2 μM Fe(II), 50 mM HEPES pH 7.5, 20 °C, mean ± SD, n = 2 (2,4-PDCA n = 10).
[10] abbreviates: LOPAC compound at 20uM, plate 2, conversion of substrate peptide.
Where [11] appears, read: LOPAC compound at 20uM, plate 2, normalised to DMSO and 2,4-PDCA controls, read-out: Plate 2 (% inhibition).

Structures can show the parent of a compound that is named as a salt. Where two headings read alike, the source gives them in different places.

As to `CC(=O)OC[C@H]1O[C@@H]([S-])[C@H](OC(C)=O)[C@@H](OC(C)=O)[C@@H]1OC(C)=O.CCP(CC)CC.[Au+]` [Auranofin], the “% conversion” value is listed as 18.61%. In addition, the “% inhibition” value (20 µM) is recorded as 52.32%.

Turning to `CN1CCN(CCCN2c3ccccc3Sc3ccc(C(F)(F)F)cc32)CC1` [Trifluoperazine dihydrochloride], the inhibition at 20 µM was -68.5%. Consider `Clc1ccc(N2CCN(Cc3cc4ccccn4n3)CC2)cc1` [FAUC 213], for which the “% inhibition” value under setting [1] is -8.79%. Moreover, the “% conversion” value under setting [2] was 39.47%. For the compound `C#CCN[C@H](C)Cc1ccccc1.Cl` [R-(-)-Desmethyldeprenyl hydrochloride], the “Plate 2 (% conversion)” value is 39.05%. In addition, the “Plate 2 (% inhibition)” value (20 µM) was -9.24%.

Regarding `CCCCN(CC)c1nc(C)nc2c1c(C)cn2-c1c(C)cc(C)cc1C.Cl` [CP-154526 hydrochloride], the “Plate 3 (% conversion)” value under setting [3] worked out at 39.02%.

Consider `CC(C)NCC(O)COc1ccc(CCOCC2CC2)cc1` (stereo not shown) [Betaxolol hydrochloride], for which the “Plate 1 (% inhibition)” value under setting [4] is -3.28%. Moreover, under setting [5], the “Plate 1 (% conversion)” value is on record as 36.97%.

With `C[C@@H](c1ncncc1F)[C@](O)(Cn1cncn1)c1ccc(F)cc1F` [Voriconazole], the “Plate 1 (% inhibition)” value under setting [4] is given as -9.17%. The “Plate 1 (% conversion)” value under setting [5] turned out to be 38.95%. Further, the “Plate 5 (% inhibition)” value under setting [6] is on record as -1.65%. Under setting [7], the “Plate 5 (% conversion)” value was 36.88%. With `N=C(N)NC(=N)Nc1ccccc1` [1-Phenylbiguanide], the “% inhibition” value under setting [1] turned out to be 12.13%. Besides, the “% conversion” value under setting [2] is 32.33%.

Regarding `c1ccc2c(c1)[I+]c1ccccc1-2` [Diphenyleneiodonium chloride], the “Plate 2 (% conversion)” value was 35.66%. Also, the inhibition at 20 µM (read-out: Plate 2 (% inhibition)) came to 0.88%. Take `Cl.N=C(N)NN` [Aminoguanidine hydrochloride]: the “Plate 1 (% inhibition)” value under setting [4] was -12.95%. In addition, the “Plate 1 (% conversion)” value under setting [5] stood at 40.22%. With `CN(C)CC[C@@H](c1ccc(Cl)cc1)c1ccccn1` [(+)-Chlorpheniramine maleate], the “Plate 1 (% inhibition)” value under setting [4] was -13.88%. Further, the “Plate 1 (% conversion)” value under setting [5] worked out at 40.53%. With `C[C@H](O)[C@H](O)[C@H]1CNc2nc(N)[nH]c(=O)c2N1.Cl`, under setting [2], the “% conversion” value stood at 25.86%.

On to `c1ccc2c(c1)CCCC2C1=NCCN1` (stereo not shown) [Tetrahydrozoline hydrochloride], for which the “% conversion” value under setting [2] is given as 39.98%. Under setting [8], the inhibition at 20 µM was -10.3%. In the case of `CCCN(CCC)C(=O)C(CCC(=O)O)NC(=O)c1ccccc1` (stereo not shown) [Proglumide], the “Plate 3 (% conversion)” value under setting [3] turned out to be 27.88%.

With `CCOC(=O)CCNc1cc(N2CCc3ccccc3CC2)nc(-c2ccccn2)n1` [GSK-J4, reference compound], under setting [9], the “IC50 [μM]” value is “inactive”. Consider `O=c1c(-n2ccnn2)c[nH]n1-c1cc(N2CCOCC2)ncn1` [Molidustat, molidustat, reference compound], for which the IC50 under setting [9] stood at 13.4 ± 1 µM.

Consider `O=C(Nc1cccnc1)N1CCC(Cc2cccc(Oc3ccc(C(F)(F)F)cn3)c2)CC1` [PF 3845 hydrate], for which the “Plate 1 (% conversion)” value amounted to 45.36% and the “Plate 1 (% inhibition)” value is given as -28.26%. In the case of `Cl.O=C(O)Cc1c[nH]cn1` [Imidazole-4-acetic acid hydrochloride], the “Plate 2 (% conversion)” value worked out at 36.46%. Where the note is “20 µM”, the “Plate 2 (% inhibition)” value was -1.52%. For `CCCCCCNC(=O)n1cc(F)c(=O)[nH]c1=O` [Carmofur], the “% conversion” value is given as 37.69%. In addition, the inhibition at 20 µM under setting [8] is -3.58%. In the case of `O=c1[nH]c2ccccc2c2ccccc12` [6(5H)-Phenanthridinone], the “% inhibition” value under setting [1] is recorded as -0.0747%. Further, the “% conversion” value under setting [2] came to 36.50%.

As for `Cc1[nH]c(=O)c(C#N)cc1-c1ccc2nccn2c1.Cl` [Olprinone hydrochloride], the “% conversion” value under setting [2] was determined as 31.06%. As to `O=C(NOCC1CC1)c1ccc(F)c(F)c1Nc1ccc(I)cc1Cl` [PD184352], the “Plate 5 (% inhibition)” value under setting [6] is given as 28.96%. The “Plate 5 (% conversion)” value under setting [7] was found to be 26.46%. With `Cc1ccc([N+](=O)[O-])cc1S(=O)(=O)N(C)C` [BRL 50481], the “Plate 1 (% conversion)” value worked out at 38.84% and the “Plate 1 (% inhibition)” value is listed as -8.84%. Take `C[C@H]1C[C@H]2[C@@H]3CCC4=CC(=O)C=C[C@]4(C)[C@@]3(Cl)[C@@H](O)C[C@]2(C)[C@@]1(O)C(=O)CO` [Beclomethasone]: the “Plate 1 (% inhibition)” value under setting [4] is given as -10.42%. The “Plate 1 (% conversion)” value under setting [5] amounted to 39.37%. `Cn1c(=O)c2c(nc(C=Cc3cccc(Cl)c3)n2C)n(C)c1=O` [8-(3-Chlorostyryl)caffeine]: the “Plate 2 (% conversion)” value amounted to 38.57%. Also, the “Plate 2 (% inhibition)” value (20 µM) is -7.82%.

For the compound `N[C@@H](Cn1ccc(=O)c(O)c1)C(=O)O` [L-Mimosine, reference compound], the half-maximal inhibitory concentration (IC50) under setting [9] worked out at 5.06 ± 0.28 µM. As for `Cl.Nc1cc(Cl)c(N=C2NCCN2)c(Cl)c1` [p-Aminoclonidine hydrochloride], the “Plate 1 (% inhibition)” value under setting [4] is -0.11%. For the same compound, under setting [5], the “Plate 1 (% conversion)” value came to 35.91%.

On to `O=C1C=CC(=O)C=C1` [p-Benzoquinone, reference compound], for which the “Inhibition at 20 µM [%]” value was 99.3%, the “Plate 1 (% conversion)” value stood at 2.52% and the “Plate 1 (% inhibition)” value stood at 99.30%. For `Cl.NC[C@@H]1O[C@H](c2ccccc2)Cc2c1ccc(O)c2O` [A-68930 hydrochloride], under setting [1], the “% inhibition” value is given as 78.36%. Also, under setting [2], the “% conversion” value came out at 9.73%. Regarding CCT007093, the “% inhibition” value under setting [1] is on record as 2.20%. For the same compound, under setting [2], the “% conversion” value is reported as 35.72%. For `Br.NCc1cc(O)no1` [Muscimol hydrobromide], the “Plate 2 (% conversion)” value came out at 37.87%. Moreover, the “Plate 2 (% inhibition)” value (20 µM) was -5.71%. On to `CC(=O)N[C@@H](CS)C(=O)O` [N-Acetyl-L-Cysteine], for which the “Plate 1 (% inhibition)” value under setting [4] turned out to be 6.30%. Moreover, the “Plate 1 (% conversion)” value under setting [5] came to 33.76%. Take `O=C(/C=C/c1ccc(O)cc1)c1ccc(O)cc1O` [Isoliquiritigenin]: the “Plate 3 (% conversion)” value under setting [3] is listed as 31.17%. `O=c1ccc2[nH]cc(C3=CCNCC3)c2[nH]1` [CP-93129]: the “Plate 5 (% conversion)” value is recorded as 38.32% and the “Plate 5 (% inhibition)” value is -5.90%. In the case of `O=C1Nc2ccc(I)cc2/C1=C/c1cc(Br)c(O)c(Br)c1` [GW5074, reference compound], the “Inhibition at 20 µM [%]” value stood at 101.1%. The half-maximal inhibitory concentration (IC50) (pH 7.5) turned out to be 2.48 ± 0.14 µM. In the case of `O=c1c(O)c(-c2ccc(O)cc2O)oc2cc(O)cc(O)c12` [Morin, reference compound], the inhibition at 20 µM (AspH activity, fixed compound concentration 20 μM, initial LOPAC screen, 0.5%v/v DMSO, read-out: Inhibition at 20 µM [%]) was 101%.

Consider `CC[N+](CC)(CC)CCOc1cccc(OCC[N+](CC)(CC)CC)c1OCC[N+](CC)(CC)CC` [Gallamine triethiodide], for which the “Plate 2 (% conversion)” value under setting [10] is on record as 33.88%. Besides, the inhibition at 20 µM under setting [11] is 6.21%. As to `COc1ccccc1N1CCN(CCCNc2c(C)c(=O)n(C)c(=O)n2C)CC1` [Urapidil, 5-Methyl-], the “% conversion” value turned out to be 36.82%. Turning to `Oc1c2ccccc2c2c3c(cccc13)N=N2` [SP600125], the “Plate 2 (% conversion)” value under setting [10] stood at 37.53%. The inhibition at 20 µM under setting [11] was -4.71%.

On to `O=C(Nc1ccncc1)c1cc([N+](=O)[O-])ccc1Cl` [T0070907], for which the “Plate 3 (% conversion)” value under setting [3] came out at 31.53%. With `CCOC(=O)C1=C(C)NC(C)=C(C(=O)OCC)C1c1c(F)c(F)c(F)c(F)c1F` [Nemadipine-A], the “Plate 3 (% conversion)” value under setting [3] is given as 41.91%.

For the compound `Cl.O=c1[nH]oc2c1CCNC2` [THIP hydrochloride], the “% conversion” value was found to be 36.67%. Also, the “% inhibition” value (20 µM) was -0.58%. As to Ro 8-4304, the “% inhibition” value under setting [1] is on record as -13.60%. Also, the “% conversion” value under setting [2] is reported as 41.11%. As for `NCCCCN` [Putrescine dihydrochloride], the “% conversion” value under setting [2] is on record as 39.89%. Also, the inhibition at 20 µM under setting [8] is -10%.

On to `COc1cc(CC(=O)O)ccc1O` [4-Hydroxy-3-methoxyphenylacetic acid], for which the “Plate 2 (% conversion)” value came to 38.57%. Besides, the “Plate 2 (% inhibition)” value (20 µM) is -7.80%. On to `CC1=C(C(=O)O)N2C(=O)[C@@H](NC(=O)[C@H](N)C3=CCC=CC3)[C@H]2SC1` [Cephradine], for which, under setting [4], the “Plate 1 (% inhibition)” value is 23.03%. Besides, under setting [5], the “Plate 1 (% conversion)” value turned out to be 28.14%. Regarding `Cc1ccc(S(=O)(=O)/C=C/C#N)cc1` [Bay 11-7082], the “% conversion” value under setting [2] is reported as 24.61%. In the case of `CS(=O)(=O)O.O.O=C(OC1C[C@@H]2CC3C[C@H](C1)N2CC3=O)c1c[nH]c2ccccc12` (stereo partly shown) [Dolasetron mesylate hydrate], the “% inhibition” value under setting [1] was -4.53%. Besides, under setting [2], the “% conversion” value was 38.02%.
